Data from patent publication US10611748B2, “Xanthone derivatives for the treatment of hepatitis B virus disease” (Hoffmann-La Roche Inc., priority 2017, dated 2020).

How the values were obtained:
[1] = system: extracellular HBsAg level in HBV-infected PHH; assay: Cryopreserved primary human hepatocytes (PHH) assay, HBsAg; type: cell-based; details: Hepatitis B virus, Hepatocyte, 216 h, read-out: HBsAg IC50
Description: (§1) Cryopreserved PHH (BioreclamationIVT, Lot YJM) was thawed at 37° C. and gently transferred into pre-warmed InVitroGRO HT medium (BioreclamationIVT, Cat. S03317). The mixture was centrifuged at 70 relative centrifugal force (RCF) for 3 minutes at RT, and the supernatant was discarded. Pre-warmed InVitroGRO CP medium (BioreclamationIVT, Cat # S03316) was added to the cell pellet to gently re-suspend cells. The cells were seeded at the density of 5.8×10^4 cells per well to collagen I coated 96-well plate (Gibco, Cat. A1142803) with the InVitroGRO CP medium. All plates were incubated at 37° C. with 5% CO2 and 85% humidity.
(§2) At 20 hours after plating, the medium was changed to PHH culture medium (Dulbecco's Modified Eagle Medium (DMEM)/F12 (1:1) (Gibco, Cat. 11320-033), 10% fetal bovine serum (Gibco Cat. 10099141), 100 U/mL penicillin, 100 μg/mL streptomycin (Gibco, Cat. 151401-122), 5 ng/mL human epidermal growth factor (Invitrogen Cat. PHG0311L), 20 ng/mL dexamethasone (Sigma, Cat. D4902) and 250 ng/mL human recombinant insulin (Gibco, Cat. 12585-014)). And the cells were incubated at 37° C. with 5% CO2 and 85% humidity for 4 hours. The medium was then changed to pre-warmed PHH culture medium containing 4% polyethylene glycol (PEG) MW8000 (Sigma, Cat. P1458-50ML) and 1% DMSO (Sigma, Cat. D2650). 5.8×10^6 genomic equivalents of HBV were added into the medium.
(§3) At 24 hours post-infection, the cells were gently washed with PBS and refreshed with PHH culture medium supplemented with 1% DMSO, and 0.25 mg/mL Matrix gel (Corning, Cat. 356237) at 200 μL per well. All plates were immediately placed in at 37° C. CO2 incubator.
(§4) 24 hours later, serial dilutions of compounds made with DMSO were further diluted with the same culture medium (PHH culture medium supplemented with 1% DMSO and 0.25 mg/mL Matrix gel as described above) before they were added to the cells to reach desired final compound concentrations and 1% DMSO concentration. The medium containing the compounds were refreshed every three days.
(§5) At 9 days post-compound treatment, extracellular HBsAg level were measured with Chemiluminescence Immuno Assay (CLIA) kit (Autobio, HBsAg Quantitative CLIA). Extracellular HBV DNA was extracted by MagNA Pure 96 system (Roche) and then determined by quantitative PCR with the following primers and probe: HBV-Forward Primer (SEQ ID NO:2): […] (5′ to 3′); HBV-Reverse Primer (SEQ ID NO:3): […](5′ to 3′); HBV-Probe: 5′+tetramethylrhodamine+SEQ ID NO:4+black hole quencher 2-3′, wherein SEQ ID NO:4 is […].
(§6) HBsAg IC50 and HBV DNA IC50 values were derived from the dose-response curve using 4 parameter logistic curve fit method.

[2] = system: extracellular HBeAg level (surrogate marker for cccDNA) in HepDES19 cells; assay: HepDES19 primary screen assay; type: cell-based, HBV; details: Hepatitis B virus, 120 h, 5 days compound incubation, HBeAg ELISA
Procedure, shortened: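 HepDES19 cells, Tet-withdrawn 8 days to induce pgRNA, then seeded 24 h before dosing with half-log compound dilutions (1% DMSO final) for 5 days at 37 °C. Extracellular HBeAg by ELISA, viability by CCK-8; IC50 from 4-parameter logistic fit.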

[3] = system: extracellular HBV DNA in HBV-infected PHH; assay: Cryopreserved primary human hepatocytes (PHH) assay, HBV DNA; type: cell-based; details: Hepatitis B virus, Hepatocyte, 216 h; cryopreserved PHH infected with HBV, 9 days post-compound treatment, quantitative PCR
Description: as §1, §2, §3, §4, §5, §6

Structure (SMILES)	IC50 [1] [nM]	IC50 [2] [nM]	IC50 [3] [nM]
O=C(O)C1CCN(c2ccc3c(=O)c4cccc(Cl)c4oc3c2)C1 (centres unmarked) [Example 2, 1-(5-chloro-9-oxo-xanthen-3-yl)pyrrolidine-3-carboxylic acid]	1330	2180	2300
O=C(O)[C@@H]1CCN(c2ccc3c(=O)c4cccc(Cl)c4oc3c2)C1 [Example 3, (3R)-1-(5-chloro-9-oxo-xanthen-3-yl)pyrrolidine-3-carboxylic acid]	1640	1240	1610
O=C(O)[C@H]1CCN(c2ccc3c(=O)c4cccc(Cl)c4oc3c2)C1 [Example 4, (3S)-1-(5-chloro-9-oxo-xanthen-3-yl)pyrrolidine-3-carboxylic acid]	1580	2180	1930
O=C(O)C1CCN(c2ccc3c(=O)c4cccc(F)c4oc3c2)C1 (centres unmarked) [Example 5, 1-(5-fluoro-9-oxo-xanthen-3-yl)pyrrolidine-3-carboxylic acid]	17800	3330	9620
O=C(O)C1CCN(c2ccc3c(=O)c4c(Cl)ccc(Cl)c4oc3c2)C1 (centres unmarked) [Example 26, 1-(5,8-dichloro-9-oxo-xanthen-3-yl)pyrrolidine-3-carboxylic Acid]	1170	2360	
